The record followed here is patent US6495591B1, “Fungal efflux pump inhibitors” (Essential Therapeutics, Inc., priority 1997, dated 2002).

≈ marks a conversion by molar mass, not a printed value. Like-named read-outs stand apart in the source and are kept apart here.

Assay [1] concerns C. albicans YEM-15 (CDR1 & CDR2 overexpressor). As to the kind of experiment: microbe, parasite or virus in culture. It counts as cell-based. Particulars: Candida albicans.
Assay [2] has as its system C. glabrata YEM-17 (CgCDR overexpressor). Briefly: microbe, parasite or virus in culture. It is filed as cell-based. Particulars: Nakaseomyces glabratus.
For another assay, the system named is C. krusei YEM-71. Briefly: Broth dilution checkerboard, azoles and terbinafine with milbemycin α9 (Table 8). It counts as cell-based. Particulars: Pichia kudriavzevii, YEM71, YEM-71, alone.
The target in assay [3] is pCDRI (ABC) efflux pump in S. cerevisiae YEM-1 (Candida albicans, UniProt P43071). As to the kind of experiment: cell-based. It counts as cell-based, C. albicans.
Chain of pCDRI (ABC) efflux pump in S. cerevisiae YEM-1 (P43071 whole entry): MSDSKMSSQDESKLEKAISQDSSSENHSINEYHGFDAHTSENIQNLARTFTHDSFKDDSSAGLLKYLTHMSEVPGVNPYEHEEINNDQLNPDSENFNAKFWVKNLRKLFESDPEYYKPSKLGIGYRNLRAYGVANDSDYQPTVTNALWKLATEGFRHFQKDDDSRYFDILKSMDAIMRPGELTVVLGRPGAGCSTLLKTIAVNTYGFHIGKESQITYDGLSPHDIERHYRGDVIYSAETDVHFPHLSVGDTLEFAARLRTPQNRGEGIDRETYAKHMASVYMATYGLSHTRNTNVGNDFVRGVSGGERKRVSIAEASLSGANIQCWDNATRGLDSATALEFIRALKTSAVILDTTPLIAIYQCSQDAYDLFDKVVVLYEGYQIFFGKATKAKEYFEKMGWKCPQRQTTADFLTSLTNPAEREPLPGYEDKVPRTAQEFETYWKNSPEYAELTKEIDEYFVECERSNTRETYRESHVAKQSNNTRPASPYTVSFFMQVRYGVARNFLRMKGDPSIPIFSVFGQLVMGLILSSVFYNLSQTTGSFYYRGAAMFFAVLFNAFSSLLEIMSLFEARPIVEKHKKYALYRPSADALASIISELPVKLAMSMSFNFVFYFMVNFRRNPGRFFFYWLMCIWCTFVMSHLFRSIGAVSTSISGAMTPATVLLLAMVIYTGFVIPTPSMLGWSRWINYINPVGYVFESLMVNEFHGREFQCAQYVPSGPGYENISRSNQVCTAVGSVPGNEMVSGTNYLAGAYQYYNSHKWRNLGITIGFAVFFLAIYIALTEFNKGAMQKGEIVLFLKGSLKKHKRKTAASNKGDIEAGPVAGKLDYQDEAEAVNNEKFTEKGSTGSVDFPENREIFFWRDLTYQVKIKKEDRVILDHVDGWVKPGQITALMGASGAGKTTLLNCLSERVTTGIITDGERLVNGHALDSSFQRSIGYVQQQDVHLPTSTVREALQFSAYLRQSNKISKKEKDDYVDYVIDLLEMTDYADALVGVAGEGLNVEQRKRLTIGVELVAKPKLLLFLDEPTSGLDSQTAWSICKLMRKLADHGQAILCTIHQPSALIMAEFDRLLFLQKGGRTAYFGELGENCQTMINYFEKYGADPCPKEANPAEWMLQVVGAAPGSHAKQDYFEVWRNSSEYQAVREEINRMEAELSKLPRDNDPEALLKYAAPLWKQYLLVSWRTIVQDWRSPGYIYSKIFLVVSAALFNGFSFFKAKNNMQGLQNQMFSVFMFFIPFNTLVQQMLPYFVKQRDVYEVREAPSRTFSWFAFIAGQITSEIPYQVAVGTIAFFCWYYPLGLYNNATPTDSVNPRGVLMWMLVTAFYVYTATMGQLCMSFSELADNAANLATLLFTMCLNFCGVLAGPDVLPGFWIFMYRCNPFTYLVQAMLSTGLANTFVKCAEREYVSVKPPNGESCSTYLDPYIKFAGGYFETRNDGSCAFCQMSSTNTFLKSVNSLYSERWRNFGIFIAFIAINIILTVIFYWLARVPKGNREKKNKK
Assay [4] has as its target pCDR2 (ABC) efflux pump in S. cerevisiae YEM-37 (Candida albicans, UniProt P78595). As to the kind of experiment: cell-based. It counts as cell-based, C. albicans.
The target in assay [5] is pCgCDR (ABC) efflux pump in S. cerevisiae YEM-39 (Candida glabrata, UniProt Q6FK23). As to the kind of experiment: cell-based. It counts as cell-based, C. glabrata.
Chain of pCgCDR (ABC) efflux pump in S. cerevisiae YEM-39 (Q6FK23 whole entry): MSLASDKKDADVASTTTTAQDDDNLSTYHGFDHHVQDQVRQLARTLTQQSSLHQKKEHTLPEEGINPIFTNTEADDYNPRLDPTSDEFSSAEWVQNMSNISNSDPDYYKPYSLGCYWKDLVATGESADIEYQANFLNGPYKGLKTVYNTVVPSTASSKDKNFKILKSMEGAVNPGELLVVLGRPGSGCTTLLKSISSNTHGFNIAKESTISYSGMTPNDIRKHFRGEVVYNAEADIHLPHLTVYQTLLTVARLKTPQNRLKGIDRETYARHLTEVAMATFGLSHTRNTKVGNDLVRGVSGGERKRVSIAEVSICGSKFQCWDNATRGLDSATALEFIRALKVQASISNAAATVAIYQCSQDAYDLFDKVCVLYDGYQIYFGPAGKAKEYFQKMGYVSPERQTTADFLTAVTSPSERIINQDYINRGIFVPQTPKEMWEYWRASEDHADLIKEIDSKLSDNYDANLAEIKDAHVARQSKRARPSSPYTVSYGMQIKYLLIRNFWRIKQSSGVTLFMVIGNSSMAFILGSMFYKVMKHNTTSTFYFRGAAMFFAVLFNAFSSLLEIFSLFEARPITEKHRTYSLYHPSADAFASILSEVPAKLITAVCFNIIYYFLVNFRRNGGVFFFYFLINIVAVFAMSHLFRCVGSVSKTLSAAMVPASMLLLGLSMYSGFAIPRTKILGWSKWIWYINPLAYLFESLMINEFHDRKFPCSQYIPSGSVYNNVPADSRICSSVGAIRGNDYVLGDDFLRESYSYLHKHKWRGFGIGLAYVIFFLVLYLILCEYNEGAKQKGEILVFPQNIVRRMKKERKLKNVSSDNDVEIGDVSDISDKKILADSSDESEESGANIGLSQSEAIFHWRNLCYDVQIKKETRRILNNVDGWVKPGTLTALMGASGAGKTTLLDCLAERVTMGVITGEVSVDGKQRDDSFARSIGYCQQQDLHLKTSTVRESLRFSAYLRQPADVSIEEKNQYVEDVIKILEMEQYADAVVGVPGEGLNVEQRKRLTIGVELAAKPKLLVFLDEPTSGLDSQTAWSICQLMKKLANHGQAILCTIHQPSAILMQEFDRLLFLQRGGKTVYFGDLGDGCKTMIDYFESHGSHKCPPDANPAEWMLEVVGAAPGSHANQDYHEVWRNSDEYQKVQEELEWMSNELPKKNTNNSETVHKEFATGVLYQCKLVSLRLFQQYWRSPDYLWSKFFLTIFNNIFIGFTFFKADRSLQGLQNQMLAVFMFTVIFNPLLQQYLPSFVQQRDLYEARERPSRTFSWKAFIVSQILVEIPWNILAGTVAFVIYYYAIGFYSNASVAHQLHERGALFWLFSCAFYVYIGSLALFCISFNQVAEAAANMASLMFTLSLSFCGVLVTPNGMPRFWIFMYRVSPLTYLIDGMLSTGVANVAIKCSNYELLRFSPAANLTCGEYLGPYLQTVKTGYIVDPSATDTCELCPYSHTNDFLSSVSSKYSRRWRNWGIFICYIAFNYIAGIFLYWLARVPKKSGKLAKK
In assay [6] the target is pBEN (MF) efflux pump in S. cerevisiae YEM-2 (Candida albicans, UniProt P28873). Briefly: cell-based. It counts as cell-based, C. albicans.
Chain of pBEN (MF) efflux pump in S. cerevisiae YEM-2 (P28873 whole entry): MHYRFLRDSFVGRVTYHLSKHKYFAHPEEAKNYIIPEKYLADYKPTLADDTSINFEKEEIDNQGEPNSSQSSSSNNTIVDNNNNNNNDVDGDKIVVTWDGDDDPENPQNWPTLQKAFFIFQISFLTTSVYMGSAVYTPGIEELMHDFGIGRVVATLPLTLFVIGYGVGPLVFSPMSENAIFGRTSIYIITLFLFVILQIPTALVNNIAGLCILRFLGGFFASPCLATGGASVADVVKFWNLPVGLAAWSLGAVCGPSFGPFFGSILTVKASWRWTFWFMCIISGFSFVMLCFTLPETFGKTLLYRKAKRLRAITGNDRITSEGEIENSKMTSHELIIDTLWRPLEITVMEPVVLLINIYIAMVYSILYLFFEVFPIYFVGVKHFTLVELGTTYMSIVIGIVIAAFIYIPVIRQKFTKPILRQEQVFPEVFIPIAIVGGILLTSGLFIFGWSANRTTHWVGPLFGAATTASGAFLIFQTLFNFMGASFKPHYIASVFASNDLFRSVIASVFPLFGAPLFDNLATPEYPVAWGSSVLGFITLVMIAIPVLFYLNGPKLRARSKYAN
The test system of assay [7] is pCgBEN (MF) efflux pump in S. cerevisiae YEM-40. It is filed as cell-based, C. glabrata. Particulars: YEM-40 pCgBEN; fluconazole fixed at FLUhalf 2.8.
The test system of assay [8] is YEM 13 C. albicans BEN up. Briefly: microbe, parasite or virus in culture. Particulars: YEM 13, 24 hrs, 80% inhibition; for MIC of compound in the presence of fluconazole (+): 1/8 × MIC of fluconazole. It counts as cell-based.
For assay [9], the system named is YEM 15 C. albicans, CDR1CDR2 up. Briefly: microbe, parasite or virus in culture. It counts as cell-based. Particulars: YEM 15, 24 hrs, 80% inhibition; for MIC of compound in the presence of fluconazole (+): 1/8 × MIC of fluconazole.
Another assay relates to YEM 53 C. krusei. Briefly: FEPI MIC with/without 1/8 fluconazole MIC at 24 hrs (Table 11). It counts as cell-based.
Assay [10] concerns YEM 17 C. glabrata, CgCDR up. It is filed as cell-based. Particulars: 24 hrs, 80% inhibition; for MIC of compound in the presence of fluconazole (+): 1/8 × MIC of fluconazole.
A further assay relates to YEM 51 C. glabrata wt. Briefly: FEPI MIC with/without 1/8 fluconazole MIC at 24 hrs (Table 11). It is filed as cell-based.
The next assay concerns YEM 30 C. albicans wt. Described as above. It counts as cell-based.
Assay [11] deals with YEM 24 C. albicans ΔCDR1, ΔCDR2. Briefly: microbe, parasite or virus in culture. It counts as cell-based. Particulars: YEM 24, 24 hrs, 80% inhibition; for MIC of compound in the presence of fluconazole (+): 1/8 × MIC of fluconazole.
The test system of assay [12] is YEM 27 C. albicans ΔCDR1ΔCDR2 ΔBENΔFLU1. As to the kind of experiment: microbe, parasite or virus in culture. It is filed as cell-based. Particulars: YEM 27, 24 hrs, 80% inhibition; for MIC of compound in the presence of fluconazole (+): 1/8 × MIC of fluconazole.
Another assay deals with Aspergillus fumigatus. Briefly: FEPI MICs in combination with 1/4 the azole's MIC (Table 12). It counts as cell-based. On the set-up: FEPI MIC (alone): unit not given here. Particulars: for FEPI MIC with itraconazole, 60% Inh / FEPI MIC with itraconazole, 80% Inh: itraconazole 0.063 μg/ml (1/4 MIC); for FEPI MIC with ketoconazole, 60% Inh / FEPI MIC with ketoconazole, 80% Inh: ketoconazole 4 μg/ml (1/4 MIC); for FEPI MIC (alone): no azole, 35° C., CM Broth. As for the experimental part:
The combinations were tested against a series of Candida strain with known expression of efflux pumps or with complete deletion of all known pumps and Aspergillus fumigatus. Results are reported as minimum inhibitory concentration (MIC) of […] in the presence or absence of […]. A total of 27 distinct milbemycins were studied.

Chain of pCDR2 (ABC) efflux pump in S. cerevisiae YEM-37 (P78595 whole entry): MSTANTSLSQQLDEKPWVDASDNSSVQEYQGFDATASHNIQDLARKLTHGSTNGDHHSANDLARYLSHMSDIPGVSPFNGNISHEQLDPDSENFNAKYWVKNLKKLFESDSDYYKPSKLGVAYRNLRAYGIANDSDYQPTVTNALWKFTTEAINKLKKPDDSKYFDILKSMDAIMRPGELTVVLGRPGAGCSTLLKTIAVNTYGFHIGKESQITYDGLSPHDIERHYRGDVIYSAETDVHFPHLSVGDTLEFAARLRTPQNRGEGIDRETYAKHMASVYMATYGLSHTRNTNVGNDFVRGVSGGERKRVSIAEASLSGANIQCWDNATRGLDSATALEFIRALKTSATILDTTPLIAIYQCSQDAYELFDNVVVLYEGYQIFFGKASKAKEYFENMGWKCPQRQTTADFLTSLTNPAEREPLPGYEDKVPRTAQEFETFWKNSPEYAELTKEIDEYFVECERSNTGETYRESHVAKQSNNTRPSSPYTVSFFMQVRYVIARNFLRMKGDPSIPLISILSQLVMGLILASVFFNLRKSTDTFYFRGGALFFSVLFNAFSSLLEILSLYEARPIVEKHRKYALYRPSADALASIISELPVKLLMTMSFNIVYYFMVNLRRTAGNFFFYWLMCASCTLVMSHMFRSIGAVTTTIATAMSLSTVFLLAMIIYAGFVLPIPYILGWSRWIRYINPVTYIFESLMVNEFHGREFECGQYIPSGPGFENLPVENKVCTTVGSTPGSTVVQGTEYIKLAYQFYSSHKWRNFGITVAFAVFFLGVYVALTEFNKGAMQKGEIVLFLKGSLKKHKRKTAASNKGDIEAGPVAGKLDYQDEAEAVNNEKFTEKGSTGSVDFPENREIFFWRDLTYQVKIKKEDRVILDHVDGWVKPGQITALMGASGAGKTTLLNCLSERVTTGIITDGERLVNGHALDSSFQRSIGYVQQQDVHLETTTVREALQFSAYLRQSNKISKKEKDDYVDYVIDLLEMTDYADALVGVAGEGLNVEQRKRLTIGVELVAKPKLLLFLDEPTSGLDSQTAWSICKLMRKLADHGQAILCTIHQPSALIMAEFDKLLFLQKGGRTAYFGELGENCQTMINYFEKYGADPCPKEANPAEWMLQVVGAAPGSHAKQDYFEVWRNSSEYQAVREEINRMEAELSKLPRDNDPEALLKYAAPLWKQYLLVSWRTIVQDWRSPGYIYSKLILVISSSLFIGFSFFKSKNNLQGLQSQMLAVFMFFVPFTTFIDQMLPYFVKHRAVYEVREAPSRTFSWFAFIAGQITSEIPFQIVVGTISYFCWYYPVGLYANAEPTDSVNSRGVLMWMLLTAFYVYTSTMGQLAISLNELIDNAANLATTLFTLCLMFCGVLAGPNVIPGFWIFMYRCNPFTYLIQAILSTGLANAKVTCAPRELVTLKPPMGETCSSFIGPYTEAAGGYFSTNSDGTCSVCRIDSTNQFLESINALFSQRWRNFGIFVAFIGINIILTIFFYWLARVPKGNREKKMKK

As for `CC(=O)N1CCN(c2ccc(OCC3COC(Cn4ccnc4)(c4ccc(Cl)cc4Cl)O3)cc2)CC1` (centres unmarked) [Ketoconazole, ketoconazole, reference compound], the MIC was 1 µg/mL (≈ 1.88 µM) in assay [1] (read-out: Ketoconazole MIC), 2 µg/mL (≈ 3.76 µM) in assay [2] (read-out: Ketoconazole MIC) and 2 µg/mL in the assay on C. krusei YEM-71 (read-out: Ketoconazole MIC).

In the case of `CC1=C[C@H]2C(=O)O[C@H]3C[C@@H](C/C=C(\C)C[C@@H](C)/C=C/C=C4\CO[C@H]([C@@H]1O)[C@@]42O)O[C@@]1(CC[C@H](C)[C@@H](C)O1)C3` [Compound 3, Milbemycin α1], the half-maximal inhibitory concentration (IC50) in [3] was less than 0.113 µM; in [4], 0.473 µM; in assay [5], 15.1 µM; in assay [6] it was 30.3 µM. Also, in assay [7], the “FEPIhalf (concentration needed to reduce activity of efflux pump by 50%)” value amounted to 32. The MIC of compound in the presence of fluconazole (+) was 32 µg/mL in assay [8]; “≦0.03” in [9]; 0.06 µg/mL in the assay with YEM 53 C. krusei; 4 µg/mL in [10]; 16 µg/mL with YEM 51 C. glabrata wt; “≦0.03” with YEM 30 C. albicans wt. The MIC of compound in the presence of fluconazole (+) was more than 64 µg/mL in assay [11] and 8 µg/mL in assay [12]. The MIC of compound in the absence of fluconazole (−) in [8] was more than 64 µg/mL; in assay [9], more than 64 µg/mL; in the assay on YEM 53 C. krusei (YEM 53, 24 hrs, 80% inhibition), more than 64 µg/mL; in assay [10], more than 64 µg/mL; in the assay with YEM 51 C. glabrata wt (YEM 51, 24 hrs, 80% inhibition), more than 64 µg/mL; in the assay on YEM 30 C. albicans wt (YEM 30, 24 hrs, 80% inhibition) it was more than 64 µg/mL. Further, the MIC of compound in the absence of fluconazole (−) was more than 64 µg/mL in assay [11] and 8 µg/mL in [12]. In addition, in the assay on Aspergillus fumigatus, the “FEPI MIC with fluconazole, 60% Inh” value was 2. The “FEPI MIC with fluconazole, 80% Inh” value in the assay with Aspergillus fumigatus is given as more than 64. The “FEPI MIC with itraconazole, 60% Inh” value in the assay with Aspergillus fumigatus (60% inhibition) is 8. Further, in the assay on Aspergillus fumigatus (80% inhibition), the “FEPI MIC with itraconazole, 80% Inh” value is on record as 16. Besides, in the assay with Aspergillus fumigatus (60% inhibition), the “FEPI MIC with ketoconazole, 60% Inh” value is on record as “≦0.063”. In addition, the “FEPI MIC with ketoconazole, 80% Inh” value with Aspergillus fumigatus (80% inhibition) is listed as “≦0.063”. Also, the “FEPI MIC (alone)” value in the assay with Aspergillus fumigatus (80% inhibition) is more than 64.

Consider `CCC(C)n1ncn(-c2ccc(N3CCN(c4ccc(OCC5COC(Cn6cncn6)(c6ccc(Cl)cc6Cl)O5)cc4)CC3)cc2)c1=O` (centres unmarked) [Itraconazole, itraconazole, reference compound], for which the MIC in assay [1] (read-out: Itraconazole MIC) was determined as 0.5 µg/mL (≈ 0.709 µM); in [2] (read-out: Itraconazole MIC) it was 128 µg/mL (≈ 181 µM); with C. krusei YEM-71 (read-out: Itraconazole MIC), 0.5 µg/mL.

In the case of `CO[C@H]1C[C@@]2(O)/C(C=O)=C/C=C/[C@H](C)C/C(C)=C/C[C@@H]3C[C@@H](C[C@]4(CC[C@H](C)[C@@H](C)O4)O3)OC(=O)[C@@H]2C=C1C` [Compound 5, Milbemycin β1 aldehyde], the MIC of compound in the presence of fluconazole (+) in assay [8] is 64 µg/mL; in assay [9] it was “≦0.03”; in the assay with YEM 53 C. krusei (YEM 53, 1/8 × MIC of fluconazole, 24 hrs, 80% inhibition), more than 64 µg/mL; in assay [10] it was 0.125 µg/mL; in the assay on YEM 51 C. glabrata wt (YEM 51, 1/8 × MIC of fluconazole, 24 hrs, 80% inhibition), 0.25 µg/mL; with YEM 30 C. albicans wt (YEM 30, 1/8 × MIC of fluconazole, 24 hrs, 80% inhibition) it was “≦0.03”. The MIC of compound in the presence of fluconazole (+) in assay [11] is more than 64 µg/mL; in assay [12], 64 µg/mL. Also, the MIC of compound in the absence of fluconazole (−) is more than 64 µg/mL in assay [8]; more than 64 µg/mL in [9]; more than 64 µg/mL in the assay with YEM 53 C. krusei (YEM 53, 24 hrs, 80% inhibition); more than 64 µg/mL in assay [10]; more than 64 µg/mL in the assay on YEM 51 C. glabrata wt (YEM 51, 24 hrs, 80% inhibition); more than 64 µg/mL with YEM 30 C. albicans wt (YEM 30, 24 hrs, 80% inhibition). Also, the MIC of compound in the absence of fluconazole (−) in assay [11] and in assay [12] was more than 64 µg/mL each time. Further, in the assay on Aspergillus fumigatus (fluconazole 32 μg/ml (1/4 MIC), 60% inhibition), the “FEPI MIC with fluconazole, 60% Inh” value stood at 4. The “FEPI MIC with fluconazole, 80% Inh” value with Aspergillus fumigatus (fluconazole 32 μg/ml (1/4 MIC), 80% inhibition) amounted to 64. Also, the “FEPI MIC with itraconazole, 60% Inh” value in the assay on Aspergillus fumigatus (60% inhibition) is 0.5. In the assay on Aspergillus fumigatus (80% inhibition), the “FEPI MIC with itraconazole, 80% Inh” value is 32. Also, the “FEPI MIC with ketoconazole, 60% Inh” value with Aspergillus fumigatus (60% inhibition) is recorded as “≦0.063”. The “FEPI MIC with ketoconazole, 80% Inh” value with Aspergillus fumigatus (80% inhibition) is given as “≦0.063”. In addition, the “FEPI MIC (alone)” value in the assay with Aspergillus fumigatus (80% inhibition) is on record as 64.

As to `CC[C@H](C)[C@H]1O[C@]2(CC[C@@H]1C)C[C@@H]1C[C@@H](C/C=C(\C)[C@@H](O[C@H]3C[C@H](OC)[C@@H](O[C@H]4C[C@H](OC)[C@@H](O)[C@H](C)O4)[C@H](C)O3)[C@@H](C)/C=C/C=C3\CO[C@@H]4[C@H](O)C(C)=C[C@@H](C(=O)O1)[C@]34O)O2` [Compound 1, Ivermectin B1a], the MIC of compound in the presence of fluconazole (+) is more than 64 µg/mL in assay [8]; more than 64 µg/mL in [9]; 8 µg/mL with YEM 53 C. krusei; more than 64 µg/mL in assay [10]; 64 µg/mL with YEM 51 C. glabrata wt; “≦0.03” in the assay on YEM 30 C. albicans wt. For the same compound, the MIC of compound in the presence of fluconazole (+) in [11] is more than 64 µg/mL; in assay [12] it was 64 µg/mL. For the same compound, the MIC of compound in the absence of fluconazole (−) was more than 64 µg/mL in assay [8]; more than 64 µg/mL in [9]; more than 64 µg/mL in the assay with YEM 53 C. krusei (YEM 53, 24 hrs, 80% inhibition); more than 64 µg/mL in assay [10]; more than 64 µg/mL in the assay with YEM 51 C. glabrata wt (YEM 51, 24 hrs, 80% inhibition); more than 64 µg/mL in the assay on YEM 30 C. albicans wt (YEM 30, 24 hrs, 80% inhibition). Also, the MIC of compound in the absence of fluconazole (−) in assay [11] and in assay [12] was more than 64 µg/mL throughout. Further, in the assay on Aspergillus fumigatus, the “FEPI MIC with fluconazole, 60% Inh” value is recorded as more than 64. Further, in the assay with Aspergillus fumigatus, the “FEPI MIC with fluconazole, 80% Inh” value is more than 64. Further, the “FEPI MIC with itraconazole, 60% Inh” value with Aspergillus fumigatus (60% inhibition) was more than 64. The “FEPI MIC with itraconazole, 80% Inh” value in the assay with Aspergillus fumigatus (80% inhibition) is more than 64. Further, in the assay with Aspergillus fumigatus (60% inhibition), the “FEPI MIC with ketoconazole, 60% Inh” value is reported as more than 64. Moreover, the “FEPI MIC with ketoconazole, 80% Inh” value in the assay on Aspergillus fumigatus (80% inhibition) is reported as more than 64. Besides, in the assay with Aspergillus fumigatus (80% inhibition), the “FEPI MIC (alone)” value is more than 64.
